In general, IC50 refers to the concentration needed to halve the response being measured.

The subject of data set [1] is Nalm-6 SF3B1^K700E xenograft tumors. Put plainly: Splicing modulation and compound concentration in xenograft tumors after single IV dose. The following applies: single IV dose 5 mg/kg. It counts as in vivo, CB17-SCID mice. Here is the method: (§1) In addition, the ability of E7107 to modulate splicing was tested in mice bearing human tumor xenografts. Nalm-6 isogenic xenograft mice were generated by subcutaneously implanting 10×10^6 Nalm-6 isogenic cells into the flank of CB17-SCID mice, and tumors from these mice were collected at different timepoints after a single intravenous (IV) dose of E7107 (5 mg/kg) and analyzed to determine compound concentrations and splicing regulation. RNA was isolated from the tumors using RiboPure™ RNA purification kit (Ambion®) and used for NanoString® assay or qPCR. The RNA was retrotranscribed according to the instructions of the SuperScript® VILO™ cDNA synthesis kit (Invitrogen™) and 0.04 μl of cDNA was used for qPCR. qPCR for pre-mRNA EIF4A1 and mature mRNA […] and pharmacokinetic evaluation were performed as described in Eskens, F. A. et al. “Phase I pharmacokinetic and pharmacodynamic study of the first-in-class spliceosome inhibitor E7107 in patients with advanced solid tumors.” Clin Cancer Res 19, 6296-6304, doi:10.1158/1078-0432.CCR-13-0485 (2013). The primers and probes used for ZDHHC16 were the following: FW 5′-[…] (SEQ ID NO: 1194), RW 5′ […] (SEQ ID NO: 1195) and probe 5′ FAM […] (SEQ ID NO: 1196). The primers and probes used for COASY were the following: FW 5′-CGGTGGTGCAAGTGGAA (SEQ ID NO: 1197), RW 5′-[…] (SEQ ID NO: 1198) and probe 5′-FAM-[…] (SEQ ID NO: 1199).

The test system of data set [2] is Nalm-6 SF3B1^K700K xenograft tumors. The description is as above. It counts as in vivo, CB17-SCID mice. The note with it: single IV dose 5 mg/kg. The protocol: as §1
In data set [3] the test system is Nalm-6 SF3B1^K700E xenograft. The experiment in a line: Antitumor activity in subcutaneous Nalm-6 SF3B1^K700E xenograft model. It counts as in vivo, CB17-SCID mice. The protocol:
SF3B1 modulator E7107 was tested for antitumor activity in vivo by determining the effect of E7107 in a subcutaneous model of Nalm-6 SF3B1^K700E. […] After this dosing, the animals were monitored until they reached either of the following endpoints: 1) excessive tumor volume measured three times a week (tumor volume calculated by using the ellipsoid formula: […]), or 2) development of any health problem such as paralysis or excessive body weight loss. Partial regression (PR) and complete regression (CR) are defined as 3 consecutive tumor measurements <50% and <30% of starting volume respectively.

Data set [4] has as its system SF3B1^WT CLL patient samples. The experiment in a line: Splicing inhibition in CLL patient samples in vitro by RNA-Seq. It counts as cell-based, human. The following applies: 10 nM, 6 hours. The protocol:
(§2) The ability of E7107 to inhibit splicing in CLL patient samples in vitro was determined by isolating RNA from samples of E7107-treated patient cells treated for 6 hours with E7107 at 10 nM and performing RNA-Seq analysis. To do so, cells were washed with PBS after treatment with E7107, and RNA was isolated using PureLink (Life Technology) as reported in the manufacturer's manual. cDNA library preparation, sequencing and raw read filtering was performed as described in Ren, S. et al. “RNA-Seq analysis of prostate cancer in the Chinese population identifies recurrent gene fusions, cancer-associated long noncoding RNAs and aberrant alternative splicings.” Cell Res 22, 806-821, doi:10.1038/cr.2012.30 (2012).

For data set [5], the system named is neomorphic SF3B1^MUT CLL patient samples. The data set is described as above. Format: cell-based, human. The note with it: 10 nM, 6 hours. Here is the method:
as §2

The target in another data set is SF3B1^K700E (Homo sapiens, UniProt O75533+Q7RTV0, K700E). Put plainly: Competitive binding assay (SPA, 3H-probe molecule) with Flag-tag SF3B1 from 293F cells. Also on record: expressed in transfected cells; host or cells: 293F cells (Life Technologies), transient transfection with pFLAG-CMV-2-SF3B1 K700E. The following applies: one nM 3H-probe; Flag-tag SF3B1^K700E from transfected 293F cells; read-out: IC50, competitive inhibition of binding of the 3H-probe molecule. The protocol: The ability of E7107 to bind both SF3B1^WT and SF3B1^K700E proteins was evaluated in a competitive binding assay using Flag-tag SF3B1 proteins immunoprecipitated with anti-Flag antibody from transiently transfected 293F cells. Batch immobilization of antibody to beads was prepared by incubating 80 μg of anti-SF3B1 antibody (MBL International) and 24 mg anti-mouse PVT SPA scintillation beads (PerkinElmer) for 30 minutes. After centrifugation, the antibody-bead mixture was resuspended in PBS supplemented with PhosSTOP phosphatase inhibitor cocktail (Roche) and complete ULTRA protease inhibitor cocktail (Roche). Nuclear extracts were prepared by diluting 40 mg into a total volume of 16 mL PBS with phosphatase and protease inhibitors, and the mixture was centrifuged. The supernatant was transferred into a clean tube, and the antibody-bead mixture was added and incubated for two hours. The beads were collected by centrifuging, washed twice with PBS+0.1% Triton X-100, and resuspended with 4.8 mL of PBS. 100 μL binding reactions were prepared using slurry and varying concentrations of E7107. […] The mixture was incubated at room temperature for 15 minutes, and luminescence signals were read using a MicroBeta2 Plate Counter (PerkinElmer).
Chain of SF3B1^K700E (Q15393 whole entry, stated change not applied): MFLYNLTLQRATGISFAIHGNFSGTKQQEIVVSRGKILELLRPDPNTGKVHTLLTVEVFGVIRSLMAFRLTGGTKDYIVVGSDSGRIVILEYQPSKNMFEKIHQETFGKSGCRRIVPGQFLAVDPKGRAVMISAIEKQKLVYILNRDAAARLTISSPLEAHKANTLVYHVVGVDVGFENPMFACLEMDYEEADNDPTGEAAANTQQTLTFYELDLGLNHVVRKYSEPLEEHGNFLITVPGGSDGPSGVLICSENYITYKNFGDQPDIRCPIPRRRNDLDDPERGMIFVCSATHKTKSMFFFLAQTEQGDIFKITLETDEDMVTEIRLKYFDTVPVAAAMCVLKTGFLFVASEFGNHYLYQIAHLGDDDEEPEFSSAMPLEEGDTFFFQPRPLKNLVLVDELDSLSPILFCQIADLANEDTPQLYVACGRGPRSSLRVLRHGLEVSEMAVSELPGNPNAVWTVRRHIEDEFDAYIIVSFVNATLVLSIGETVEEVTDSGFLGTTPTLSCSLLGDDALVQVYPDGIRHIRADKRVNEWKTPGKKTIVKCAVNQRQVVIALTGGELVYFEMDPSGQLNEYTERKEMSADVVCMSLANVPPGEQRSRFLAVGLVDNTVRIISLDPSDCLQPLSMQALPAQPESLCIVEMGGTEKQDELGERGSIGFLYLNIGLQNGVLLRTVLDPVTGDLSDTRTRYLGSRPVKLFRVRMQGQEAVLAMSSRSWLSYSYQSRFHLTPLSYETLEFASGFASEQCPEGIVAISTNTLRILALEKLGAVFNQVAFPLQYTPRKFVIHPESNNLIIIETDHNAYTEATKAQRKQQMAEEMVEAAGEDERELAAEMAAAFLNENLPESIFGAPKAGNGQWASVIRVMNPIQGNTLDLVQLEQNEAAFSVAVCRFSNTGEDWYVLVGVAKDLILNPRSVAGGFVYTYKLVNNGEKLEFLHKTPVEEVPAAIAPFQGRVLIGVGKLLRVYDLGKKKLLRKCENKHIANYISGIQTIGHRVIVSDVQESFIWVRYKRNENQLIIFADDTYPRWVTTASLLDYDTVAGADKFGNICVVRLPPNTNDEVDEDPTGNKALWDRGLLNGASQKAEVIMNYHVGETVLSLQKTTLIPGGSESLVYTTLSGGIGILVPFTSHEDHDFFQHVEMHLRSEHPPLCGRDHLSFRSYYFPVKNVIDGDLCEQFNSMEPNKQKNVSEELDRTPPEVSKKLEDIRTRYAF
Chain of SF3B1^K700E (Q9BWJ5 whole entry, further chain): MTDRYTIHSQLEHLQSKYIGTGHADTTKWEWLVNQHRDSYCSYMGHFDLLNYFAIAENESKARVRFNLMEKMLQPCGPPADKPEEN
Chain of SF3B1^K700E (Q7RTV0 whole entry): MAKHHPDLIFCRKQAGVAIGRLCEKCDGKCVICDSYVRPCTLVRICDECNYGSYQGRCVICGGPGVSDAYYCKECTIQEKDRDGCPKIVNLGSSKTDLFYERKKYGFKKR
Chain of SF3B1^K700E (O75533 whole entry K700E): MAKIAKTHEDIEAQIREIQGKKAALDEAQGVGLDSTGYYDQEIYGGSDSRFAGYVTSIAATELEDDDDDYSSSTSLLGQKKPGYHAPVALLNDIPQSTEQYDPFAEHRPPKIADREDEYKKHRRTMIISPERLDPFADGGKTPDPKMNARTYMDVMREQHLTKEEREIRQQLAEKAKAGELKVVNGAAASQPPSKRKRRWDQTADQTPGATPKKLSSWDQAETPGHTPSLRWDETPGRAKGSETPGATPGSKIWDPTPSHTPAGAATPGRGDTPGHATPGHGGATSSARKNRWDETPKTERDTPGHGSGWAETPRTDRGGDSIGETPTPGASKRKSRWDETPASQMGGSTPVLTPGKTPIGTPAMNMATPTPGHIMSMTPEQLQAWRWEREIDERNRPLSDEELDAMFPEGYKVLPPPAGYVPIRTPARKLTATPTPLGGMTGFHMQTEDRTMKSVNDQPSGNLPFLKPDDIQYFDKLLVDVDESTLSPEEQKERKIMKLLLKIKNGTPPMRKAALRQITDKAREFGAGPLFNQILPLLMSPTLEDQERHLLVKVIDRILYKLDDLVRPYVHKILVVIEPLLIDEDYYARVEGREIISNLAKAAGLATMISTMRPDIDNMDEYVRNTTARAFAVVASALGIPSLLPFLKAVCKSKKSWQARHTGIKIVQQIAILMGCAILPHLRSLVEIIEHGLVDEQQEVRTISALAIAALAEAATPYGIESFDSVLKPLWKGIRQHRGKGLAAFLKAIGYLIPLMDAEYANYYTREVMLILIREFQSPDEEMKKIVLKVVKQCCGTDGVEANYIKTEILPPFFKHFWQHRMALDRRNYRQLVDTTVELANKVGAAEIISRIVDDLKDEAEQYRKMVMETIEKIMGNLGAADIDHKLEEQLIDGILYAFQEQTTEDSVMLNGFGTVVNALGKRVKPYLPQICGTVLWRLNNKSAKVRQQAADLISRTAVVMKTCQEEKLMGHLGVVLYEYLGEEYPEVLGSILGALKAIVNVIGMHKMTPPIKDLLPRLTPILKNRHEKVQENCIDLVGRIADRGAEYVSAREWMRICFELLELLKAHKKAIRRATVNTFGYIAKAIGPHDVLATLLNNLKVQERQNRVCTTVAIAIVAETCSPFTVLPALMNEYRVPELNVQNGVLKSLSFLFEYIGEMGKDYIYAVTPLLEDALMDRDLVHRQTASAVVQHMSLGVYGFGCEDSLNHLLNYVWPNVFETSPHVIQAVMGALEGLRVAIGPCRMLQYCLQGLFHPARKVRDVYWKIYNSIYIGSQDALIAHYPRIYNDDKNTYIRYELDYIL

Take `CC[C@H](O)[C@@H](C)[C@H]1O[C@@H]1C[C@@](C)(O)/C=C/C=C(\C)[C@H]1OC(=O)C[C@H](O)CC[C@@](C)(O)[C@@H](OC(=O)N2CCN(C3CCCCCC3)CC2)/C=C/[C@@H]1C` [Compound E7107]: the “abnormal splicing of COASY and ZDHHC16 in tumor, qPCR” value in data set [1] was “downregulated abnormal splicing”. In addition, the “canonical splicing in tumor (EIF4A1 pre-mRNA, SLC25A19 mature mRNA), qPCR” value in data set [1] and in data set [2] was “modulated canonical splicing” each time. For the same molecule, the “canonical and aberrant splice mRNA isoforms in tumor, NanoString” value in data set [1] (timepoints after dose) and in data set [2] (timepoints after dose) was “downregulated by E7107 as early as one hour following administration” in each case. For the same molecule, the “complete regression (CR)” value is “all animals (n=10) reached complete regression (CR)” in data set [3] (1.25 mg/kg IV QDx5, n=10) and “all Nalm-6 SF3B1^K700E xenograft animals reached CR as early as 9 days post treatment” in data set [3] (5 mg/kg IV QDx5). Besides, the “complete regressions (CRs), animals” value in data set [3] (2.5 mg/kg IV QDx5, by day 9) is reported as 10/10. Besides, the mean survival time result in data set [3] (5 mg/kg IV QDx5) is listed as “over 250 days”. In data set [3] (1.25, 2.5 and 5 mg/kg IV QDx5), the “tolerability of dose levels” value is on record as “well tolerated”. The “expression of canonical splice isoforms” value in data set [4] and in data set [5] was “inhibited the expression of canonical splice isoforms” each time. For the same molecule, the aberrant splicing result in data set [5] (all samples carrying neomorphic SF3B1 mutations) is listed as “able to modulate aberrant splicing”. The half-maximal inhibitory concentration (IC50) on SF3B1^K700E stood at 11 nM.

The values are drawn from patent US11761045B2, “Splice variants associated with neomorphic SF3B1 mutants” (Eisai R&D Management Co., Ltd., priority 2015, dated 2023).
